target: T1, hT1R1/hT1R3 umami receptor (Homo sapiens, UniProt Q7RTX0+Q7RTX1); assay: In vitro hT1R1/hT1R3 umami taste receptor activation assay (FLIPR, dose response); format: cell-based; details: Table A, Umami Amides; read-out: Umami EC50
T1 construct: expressed in transfected cells; host or cells: HEK293 derivative stably expressing Gα15, clone I-17, expression induced with mifepristone
T1 sequence (Q7RTX1 21-841): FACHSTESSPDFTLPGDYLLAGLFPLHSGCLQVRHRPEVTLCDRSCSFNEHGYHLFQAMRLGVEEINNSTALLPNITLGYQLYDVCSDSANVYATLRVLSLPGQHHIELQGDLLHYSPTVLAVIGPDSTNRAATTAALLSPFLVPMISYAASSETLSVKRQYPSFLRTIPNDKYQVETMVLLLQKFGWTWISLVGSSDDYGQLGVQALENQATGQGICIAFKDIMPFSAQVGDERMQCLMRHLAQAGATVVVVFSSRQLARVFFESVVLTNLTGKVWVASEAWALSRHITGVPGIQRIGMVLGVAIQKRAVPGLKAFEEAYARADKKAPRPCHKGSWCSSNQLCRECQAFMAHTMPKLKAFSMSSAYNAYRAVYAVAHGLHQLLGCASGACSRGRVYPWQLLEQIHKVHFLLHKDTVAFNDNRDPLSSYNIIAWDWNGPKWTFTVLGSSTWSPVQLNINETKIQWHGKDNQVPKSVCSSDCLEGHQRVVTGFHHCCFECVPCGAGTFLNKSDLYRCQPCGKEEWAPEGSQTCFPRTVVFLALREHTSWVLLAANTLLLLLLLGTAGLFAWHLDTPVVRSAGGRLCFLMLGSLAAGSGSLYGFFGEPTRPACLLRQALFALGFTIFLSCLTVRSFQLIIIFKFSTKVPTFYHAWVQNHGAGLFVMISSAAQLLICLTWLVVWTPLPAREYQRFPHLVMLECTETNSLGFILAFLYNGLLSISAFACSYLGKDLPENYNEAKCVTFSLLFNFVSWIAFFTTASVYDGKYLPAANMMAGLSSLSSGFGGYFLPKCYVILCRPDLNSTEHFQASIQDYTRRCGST
T1 sequence (Q7RTX0 21-852): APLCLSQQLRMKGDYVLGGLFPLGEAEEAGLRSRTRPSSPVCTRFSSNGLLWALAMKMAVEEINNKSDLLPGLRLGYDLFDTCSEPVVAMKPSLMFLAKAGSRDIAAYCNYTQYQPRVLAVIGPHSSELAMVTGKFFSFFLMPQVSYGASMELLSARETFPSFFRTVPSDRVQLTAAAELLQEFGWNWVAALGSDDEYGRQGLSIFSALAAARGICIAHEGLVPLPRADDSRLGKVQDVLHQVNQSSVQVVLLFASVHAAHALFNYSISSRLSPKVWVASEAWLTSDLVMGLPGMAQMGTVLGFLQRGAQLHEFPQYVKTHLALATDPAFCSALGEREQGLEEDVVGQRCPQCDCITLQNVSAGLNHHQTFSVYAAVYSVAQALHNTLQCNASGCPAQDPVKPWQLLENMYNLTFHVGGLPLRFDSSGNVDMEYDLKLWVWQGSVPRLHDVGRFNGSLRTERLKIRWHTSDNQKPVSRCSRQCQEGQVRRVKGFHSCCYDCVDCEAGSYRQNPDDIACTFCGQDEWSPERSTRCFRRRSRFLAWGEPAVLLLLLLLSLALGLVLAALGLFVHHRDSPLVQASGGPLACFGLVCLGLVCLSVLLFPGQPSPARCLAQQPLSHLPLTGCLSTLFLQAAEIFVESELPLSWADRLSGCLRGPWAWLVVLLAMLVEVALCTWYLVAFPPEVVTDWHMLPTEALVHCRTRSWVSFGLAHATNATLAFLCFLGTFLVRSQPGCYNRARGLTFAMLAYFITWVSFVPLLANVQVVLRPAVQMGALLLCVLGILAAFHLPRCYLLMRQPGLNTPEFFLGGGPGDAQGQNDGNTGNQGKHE
Text: In order to identify new savory flavoring agents and enhancers, including compounds with savory agonist and enhancer activities (dual activity), the compounds of Formula (I) were screened in primary assays and secondary assays including compound dose response and enhancement assay. In a primary assay for potential ability to modulate umami taste, amide compounds of Formula (I) that can be either savory flavoring agents in their own right or flavor enhancers of MSG are identified and scores of their activities are given as percentage of the maximum MSG intensity (%). In compound dose response, an EC50 is calculated to reflect the potency of the compound as a savory agonist or enhancer.
An HEK293 cell line derivative (See e.g., Chandrashekar, et al., Cell (2000) 100: 703-711) which stably expresses Gα15 and hT1R1/hT1R3 under an inducible promoter (see WO 03/001876 A2) was used to identify compounds with savory tasting properties.
For dose-responses analysis, stimuli were presented in duplicates at 10 different concentrations ranging from 1.5 nM to 30 μM. Activities were normalized to the response obtained with 60 mM monosodium glutamate, a concentration that elicits maximum receptor response. […] Identical results were obtained when analyzing the dose-response data using commercially available software for non-linear regression analysis such as GraphPad PRISM (San Diego, Calif.).

Compound | EC50 [nM]
COC(=O)C(CC(C)C)NC(=O)c1cc2ccccc2s1 (stereo in doubt) [Example A4, 2-[(Benzo[b]thiophene-2-carbonyl)-amino]-4-methyl-pentanoic acid methyl ester] | 400
COC(=O)C(CC(C)C)NC(=O)c1cc2ccccc2o1 (stereo in doubt) [Example A5, 2-[(Benzofuran-2-carbonyl)-amino]-4-methyl-pentanoic acid methyl ester] | 310
COC(=O)C(CC(C)C)NC(=O)c1cc2cc(OC)ccc2o1 (stereo in doubt) [Example A6, 2-[(5-Methoxy-benzofuran-2-carbonyl)-amino]-4-methyl-pentanoic acid methyl ester] | 320

same assay, conditions: opposite enantiomers compared; read-out: AFFINITY FOR T1R1/T1R3 SAVORY RECEPTOR EC50 UM

Compound | EC50 [nM]
COc1cccc(C(=O)N[C@H]2CCCc3ccccc32)c1N | 10
CCOc1ccc(C(=O)N[C@@H]2CCc3ccccc32)cc1C [(R)-N-(2,3-dihydro-1H-inden-1-yl)-4-ethoxy-3-methylbenzamide] | 4530
COc1ccc(C(=O)N[C@@H]2CCc3ccccc32)cc1C [(R)-N-(2,3-dihydro-1H-inden-1-yl)-4-methoxy-3-methylbeuzamide] | 2130

same assay, conditions: read-out: EC50 for activation of a hT1R1/hT1R3 umami receptor expressed in an HEK293 cell line

EC50 [nM] | Compound
80 | COc1ccc2c(c1)CCC2NC(=O)c1ccc(OC)c(C)c1 (racemic) [Example 121-2, (R/S)-4-Methoxy-N-(5-methoxy-2,3-dihydro-1H-inden-1-yl)-3-methylbenzamide]
14000 | CCCC(CCC)NC(=O)c1ccc2c(c1)OC(CC(=O)OCC)O2 (stereo not drawn) [Example 19, Ethyl 2-(5-(heptan-4-ylcarbamoyl)benzo[d][1,3]dioxol-2-yl)acetate]
2700 | CCCC(CCC)NC(=O)c1ccc2c(c1)OC(C)(C)O2 [Example 20, N-(heptan-4-yl)-2,2-dimethylbenzo[d][1,3]dioxole-5-carboxamide]
11500 | CCCC(CCC)NC(=O)c1ccc2c(c1)OC(C(C)C)O2 (stereo not drawn) [Example 21, N-(heptan-4-yl)-2-isopropylbenzo[d][1,3]dioxole-5-carboxamide]
1510 | CCCC(CCC)NC(=O)c1ccc2c(c1)OC(F)(F)O2 [Example 22, 2,2-difluoro-N-(heptan-4-yl)benzo[d][1,3]dioxole-5-carboxamide]
490 | CCCC(CCC)NC(=O)c1ccc2c(c1)OCCO2 [Example 23, 2,3-Dihydro-benzo[1,4]dioxine-6-carboxylic acid (1-propyl-butyl)-amide]
6400 | CCCC(CCC)NC(=O)c1ccc2c(c1)OCCCO2 [Example 24, N-(heptan-4-yl)-3,4-dihydro-2H-benzo[b][1,4]dioxepine-7-carboxamide]
880 | CCCC(CCC)NC(=O)c1cc2ccccc2o1 [Example 25, benzofuran-2-carboxylic(1-propylbutyl)amide]
110 | COC(=O)[C@@H](CC(C)C)NC(=O)c1cc2cc(C)ccc2o1 [Example 27, (R)-methyl 4-methyl-2-(5-methylbenzofuran-2-carboxamido)pentanoate]
740 | CCCC(CC)NC(=O)c1cc2cc(C)ccc2o1 (stereo not drawn) [Example 28, N-(hexan-3-yl)-5-methylbenzofuran-2-carboxamide]
400 | CCCC(CC)NC(=O)c1cc2cc(OC)ccc2o1 (stereo not drawn) [Example 29, N-(hexan-3-yl)-5-methoxybenzofuran-2-carboxamide]

Second part, the compound before the results:

Compound | EC50 [nM]
CCCC(CC(C)C)NC(=O)c1ccc2c(c1)OCO2 (stereo not drawn) [Example 2, N-(2-methylheptan-4-yl)benzo[d][1,3]dioxole-5-carboxamide] | 220
CCCC(NC(=O)c1ccc2c(c1)OCO2)C(C)C (stereo not drawn) [Example 3, N-(2-methylhexan-3-yl)benzo[d][1,3]dioxole-5-carboxamide] | 610
CC1CCCC(NC(=O)c2ccc3c(c2)OCO3)C1C (stereo not drawn) [Example 4, N-(2,3-dimethylcyclohexyl)benzo[d][1,3]dioxole-5-carboxamide] | 450
CCC(CC(C)C)NC(=O)c1ccc2c(c1)OCO2 (stereo not drawn) [Example 5, N-(5-methylhexan-3-yl)benzo[d][1,3]dioxole-5-carboxamide] | 570
O=C(NC1CCCc2ccccc21)c1ccc2c(c1)OCO2 (stereo not drawn) [Example 7, N-(1,2,3,4-tetrahydronaphthalen-1-yl)benzo[d][1,3]dioxole-5-carboxamide] | 710
CC(C)C[C@H](CO)NC(=O)c1ccc2c(c1)OCO2 [Example 8, (R)-N-(1-hydroxy-4-methylpentan-2-yl)benzo [d][1,3]dioxole-5-carboxamide] | 9000
COC[C@@H](CC(C)C)NC(=O)c1ccc2c(c1)OCO2 [Example 9, (R)-N-(1-methoxy-4-methylpentan-2-yl)benzo[d][1,3]dioxole-5-benzo[d][1,3]dioxole-5-carboxylic acid] | 3500
COC(=O)[C@H](NC(=O)c1ccc2c(c1)OCO2)C(C)C [Example 10, (R)-methyl 2-(benzo[d][1,3]dioxole-6-carboxamido)-3-methylbutanoate] | 1160
CC(C)CC(COP(=O)(O)O)NC(=O)c1ccc2c(c1)OCO2 (stereo not drawn) [Example 11, 2-(benzo[d][1,3]dioxole-6-carboxamido)-4-methylpentyl dihydrogen phosphate] | 10900
CCCC(CC)NC(=O)c1ccc(OC)c(C)c1 (stereo not drawn) [Example 12, N-(hexan-3-yl)-4-methoxy-3-methylbenzamide] | 120
CC(C)C[C@@H](NC(=O)c1ccc2c(c1)OCO2)C(=O)N(C)C [Example 13, (R)-N-(1-(dimethylamino)-4-methyl-1-oxopentan-2-yl) benzo[d][1,3]dioxole-5-carboxamide] | 1060
CCCC(COC(C)=O)NC(=O)c1ccc2c(c1)OCO2 (stereo not drawn) [Example 14, 2-(benzo[d][1,3]dioxole-6-carboxamido)pentyl acetate] | 11900
CC(C)C[C@@H](NC(=O)c1ccc2c(c1)OCO2)C(=O)NCCc1cccnc1 [Example 15, (R)-N-(4-methyl-1-oxo-1-(2-(pyridin-3-yl)ethylamino)pentan-2-yl)benzo[d][1,3]dioxole-5-carboxamide] | 1700
CC(C)C[C@@H](NC(=O)c1ccc2c(c1)OCO2)C(=O)N1CCCC1CO (stereo partly drawn) [Example 16, N-((R)-1-(2-(hydroxymethyl)pyrrolidin-1-yl)-4-methyl-1-oxopentan-2-yl)benzo[d][1,3]dioxole-5-carboxamide] | 3000
CCCC(CCC)NC(=O)c1cc2c(cc1C)OCO2 [Example 17, N-(heptan-4-yl)-6-methylbenzo[d][1,3]dioxole-5-carboxamide] | 110
CCCC(CCC)NC(=O)c1ccc2c(c1)OC(C)O2 (stereo not drawn) [Example 18, N-(heptan-4-yl)-2-methylbenzo[d][1,3]dioxole-5-carboxamide] | 100

Source: patent US20060045953A1 (priority 2004, published 2006)
